Like-named read-outs stand apart in the source and are kept apart here.
What was measured:
[1] = target: T1, CD45 (Homo sapiens, UniProt P08575); conditions: read-out: IC50 (CD45)
T1 sequence (P08575 26-1306): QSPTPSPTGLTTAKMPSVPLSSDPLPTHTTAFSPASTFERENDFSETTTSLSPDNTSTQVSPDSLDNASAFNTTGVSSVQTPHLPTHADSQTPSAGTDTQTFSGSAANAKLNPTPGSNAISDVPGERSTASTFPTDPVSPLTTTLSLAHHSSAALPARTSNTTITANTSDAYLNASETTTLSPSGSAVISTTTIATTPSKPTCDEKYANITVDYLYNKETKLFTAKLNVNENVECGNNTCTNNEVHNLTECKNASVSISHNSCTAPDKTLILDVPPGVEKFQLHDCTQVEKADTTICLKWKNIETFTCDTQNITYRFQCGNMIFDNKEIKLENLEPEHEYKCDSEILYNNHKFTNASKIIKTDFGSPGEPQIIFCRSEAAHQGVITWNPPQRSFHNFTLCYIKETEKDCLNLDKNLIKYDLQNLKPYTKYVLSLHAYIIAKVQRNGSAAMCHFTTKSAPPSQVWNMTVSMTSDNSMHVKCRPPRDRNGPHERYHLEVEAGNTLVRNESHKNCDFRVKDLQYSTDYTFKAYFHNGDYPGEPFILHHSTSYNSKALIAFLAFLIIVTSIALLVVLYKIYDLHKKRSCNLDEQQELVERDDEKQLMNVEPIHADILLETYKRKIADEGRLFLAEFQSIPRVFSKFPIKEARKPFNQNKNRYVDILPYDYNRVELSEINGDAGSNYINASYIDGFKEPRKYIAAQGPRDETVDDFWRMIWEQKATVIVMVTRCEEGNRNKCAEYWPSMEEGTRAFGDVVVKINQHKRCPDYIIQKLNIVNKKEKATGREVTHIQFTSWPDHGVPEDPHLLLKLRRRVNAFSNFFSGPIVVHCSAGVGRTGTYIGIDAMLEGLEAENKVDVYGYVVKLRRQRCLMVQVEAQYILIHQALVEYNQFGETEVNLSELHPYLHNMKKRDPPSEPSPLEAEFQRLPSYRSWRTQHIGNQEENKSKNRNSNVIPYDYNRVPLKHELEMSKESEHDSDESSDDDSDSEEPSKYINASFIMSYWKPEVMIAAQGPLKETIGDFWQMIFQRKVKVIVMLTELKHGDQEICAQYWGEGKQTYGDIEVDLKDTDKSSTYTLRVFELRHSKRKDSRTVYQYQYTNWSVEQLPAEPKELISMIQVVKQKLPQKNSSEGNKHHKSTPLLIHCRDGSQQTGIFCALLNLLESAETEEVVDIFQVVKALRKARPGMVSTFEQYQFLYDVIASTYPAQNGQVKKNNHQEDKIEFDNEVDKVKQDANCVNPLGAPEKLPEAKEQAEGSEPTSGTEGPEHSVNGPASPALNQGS

[2] = target: human osteoblastic (TE85) tyrosinephosphate phosphatase; assay type: biochemical; conditions: for IC50: read-out: TF85 IC50
[3] = test system: human TE85 osteoblast-line cells; test: Osteoblast Cell Proliferation (3H-thymidine incorporation); assay type: cell-based; conditions: 24 h, read-out: Osteoblast Cell Prolif % X Control; for activity at 100 µM: concentration of drug 100 μM
Description: The action of select compounds to stimulate osteoblast growth can be measured in culture by assuming the rate of DNA synthesis is proportional to the rate of ^3 H-thymidine incorporation into DNA. Only cells undergoing mitosis will synthesize new DNA and thus only these cells will incorporate the radiolabelled DNA-specific thymidine. The stimulation of the proliferation and differentiation of bone-forming cells, osteoblasts, is a prerequisite for an increase in bone formation and bone mass. The ability of agents to increase osteoblast proliferation and differentiation can be predicted (reference) by their action on cultured osteoblast-line cells in vitro. In this test human TE85 osteoblast-line cells (100,000) were plated on 24 well plates in DMEM containing 5% fetal calf serum for 48 hours. After removal of the media, 0.3 mL of serum-free media containing 0.25% BSA was added to each well. After 24 hours, the treatments were added to the conditioned media for an additional 24 hours. Tritiated thymidine (0.6uCi) was added for the last two hours. After rinsing the cells with Dulbeccos PBS, the cells were released from the plate by trypsinizing with 0.25 mL trypsin (0.25%) for 5-10 min. An equal aliquot of 25% TCA was added and the cell lysate allowd to stand for 15 minutes at 4° C. The lysate was centrifuged for 10 minutes, the supernatant removed, and the pellet washed with 0.2 mL of cold 80% ethanol. After a second centrifugation, the pellet was suspended in 0.1 mL 0.1% Triton X-1 00. The pellet was then sonicated to remove all of the material from the sides of the tube. This material was placed into a scintillation vial. An additional 0.08 mL of the Triton was used to rinse the tube before placing into the vial. These mbined samples were quantitated by scintillation spectrometry.

[4] = target: T1, CD45; test: biochemical

Compound	IC50 [2]	also measured
O=[N+]([O-])c1ccc(Cl)c(C(O)P(=O)(O)O)c1 (centres unmarked) [Example 2, (2-Chloro-5-nitro)phenylhydroxymethylphosphonic acid]	35 µM	IC50 ([1]; enzyme from Jurkat cell (JEG-6) membranes, pH 6.0, 90 minutes at 37° C.): 20 µM
O=[N+]([O-])c1ccc(O)c(C(O)P(=O)(O)O)c1 (centres unmarked) [Example 7, (2-Hydroxy-5-nitro)phenylhydroxymethylphosphonic acid]	30 µM	
O=[N+]([O-])c1ccc(Oc2ccccc2)c(C(O)P(=O)(O)O)c1 (centres unmarked) [Example 12, (2-Phenoxy-5-nitro)phenylhydroxymethylphosphonic acid]	18 µM	activity at 100 µM [3]: 112%; IC50 [4]: 14 µM
Cc1ccc(Oc2ccc([N+](=O)[O-])cc2C(O)P(=O)(O)O)cc1 (centres unmarked) [Example 14, [2-(4-Methyl)phenoxy-5-nitro]phenylhydroxymethyl phosphonic acid]		TF85 % @ 300 μM ([2]; te85 cell extract, 15 min): 90%
O=[N+]([O-])c1ccc(Oc2cccnc2)c(C(O)P(=O)(O)O)c1 (centres unmarked) [Example 15, [2-(3-Pyridyl)oxy-5-nitro]phenylhydroxymethyl-phosphonic acid]	33 µM	
O=[N+]([O-])c1ccc(Sc2ccccc2)c(C(O)P(=O)(O)O)c1 (centres unmarked) [Example 17, (2-Phenylthio-5-nitro)phenylhydroxymethylphosphonic acid]	28 µM	activity at 100 µM [3]: 119%
O=[N+]([O-])c1ccc(Sc2ccc(Cl)cc2)c(C(O)P(=O)(O)O)c1 (centres unmarked) [Example 19, [2-(4-Chlorophenylthio)-5-nitro]phenylhydroxymethylphosphonic acid]		IC50 ([1]; pH 6): 28 µM; TF85 % @ 300 μM ([2]; te85 cell extract, 15 min): 95%
O=[N+]([O-])c1ccc(Sc2cccc(C(F)(F)F)c2)c(C(O)P(=O)(O)O)c1 (centres unmarked) [Example 20, [2-(3-Trifluoromethyl)phenylthio-5-nitro]phenylhydroxymethylphosphonic acid]	2.4 µM	activity at 100 µM [3]: 139%
O=[N+]([O-])c1ccc(Sc2ccccn2)c(C(O)P(=O)(O)O)c1 (centres unmarked) [Example 22, [2-(2-Pyridyl)thio-5-nitro]phenylhydroxymethyl-phosphonic acid]	14 µM	IC50 ([1]; pH 6): 1 µM
COc1ccccc1Sc1ccc([N+](=O)[O-])cc1C(O)P(=O)(O)O (centres unmarked) [Example 24, [2-(2-Methoxyphenylthio)-5-nitro]phenylhydroxymethylphosphonic acid]	23 µM	
O=[N+]([O-])c1ccc(SC2CCCCC2)c(C(O)P(=O)(O)O)c1 (centres unmarked) [Example 26, (2-Cyclohexylthio-5-nitro)phenylhydroxymethylphosphonic acid]	5.8 µM	activity at 100 µM [3]: 138%; IC50 ([1]; pH 6): 1.2 µM
O=[N+]([O-])c1ccc(SCc2ccccc2)c(C(O)P(=O)(O)O)c1 (centres unmarked) [Example 28, (2-Benzylthio-5-nitro)phenylhydroxymethylphosphonic acid]	6.3 µM	activity at 100 µM [3]: 111%; IC50 [4]: 6 µM
Cc1ccccc1CSc1ccc([N+](=O)[O-])cc1C(O)P(=O)(O)O (centres unmarked) [Example 29, [2-(2-Methyl)benzylthio-5-nitro]phenylhydroxymethyl phosphonic acid]	9.4 µM	
Cc1cccc(CSc2ccc([N+](=O)[O-])cc2C(O)P(=O)(O)O)c1 (centres unmarked) [Example 30, [2-(3-Methyl)benzylthio-5-nitro]phenylhydroxymethyl phosphonic acid]	4.4 µM	
Cc1ccc(CSc2ccc([N+](=O)[O-])cc2C(O)P(=O)(O)O)cc1 (centres unmarked) [Example 31, [2-(4-Methyl)benzylthio-5-nitro]phenylhydroxymethylphosphonic acid]	0.82 µM	activity at 30 µM ([3]; concentration of drug 30 μM): 159%
Cc1ccc(CCSc2ccc([N+](=O)[O-])cc2C(O)P(=O)(O)O)cc1 (centres unmarked) [Example 32, [2-(4-Methylphenylethylthio)-5-nitro]phenyl-hydroxymethyl phosphonic acid]		TF85 % @ 300 μM ([2]; te85 cell extract, 15 min): 73%
O=[N+]([O-])c1ccc(SCCCc2ccccc2)c(C(O)P(=O)(O)O)c1 (centres unmarked) [Example 34, [2-(3-Phenylpropyl)thio-5-nitro]phenylhydroxy-methyl phosphonic acid]	0.45 µM	activity at 100 µM [3]: 127%
CCCCCCCCCCSc1ccc([N+](=O)[O-])cc1C(O)P(=O)(O)O (centres unmarked) [Example 36, [2-(1-N-decyl)thio-5-nitro]phenylhydroxymethylphosphonic acid]	1 µM	
CCCCCCSc1ccc([N+](=O)[O-])cc1C(O)P(=O)(O)O (centres unmarked) [Example 38, [2-(1-N-hexanyl)thio-5-nitro]phenylhydroxy-methylphosphonic acid]	1 µM	
O=[N+]([O-])c1cc(C(O)P(=O)(O)O)cs1 (centres unmarked) [Example 40, 2-Nitro-4-thienylhydroxymethylphosphosphonic acid]		IC50 ([1]; pH 6): 38 µM; TF85 % @ 300 μM ([2]; te85 cell extract, 15 min): 79%
O=[N+]([O-])c1ccc(C(O)P(=O)(O)O)s1 (centres unmarked) [Example 43, 5-Nitro-2-thiophenehydroxymethylphosphonic acid]	1 µM	
O=Cc1ccc(OC(=O)c2ccccc2)c([N+](=O)[O-])c1 [Example 50, 3-Nitro-4-benzoyloxybenzaldehyde]	17 µM	
Cc1ccc(C(O)P(=O)(O)O)cc1[N+](=O)[O-] (centres unmarked) [Example 52, (3-Nitro-4-methyl)phenylhydroxymethyphosphonic acid]	30 µM	
O=[N+]([O-])c1cc(C(O)P(=O)(O)O)ccc1Sc1ccc(Br)cc1 (centres unmarked) [Example 54, [3-Nitro-4-(4-bromophenylthio)]phenylhydroxymethylphosphonic acid]		TF85 % @ 30 μM ([2]; te85 cell extract, 15 min): 75%
O=[N+]([O-])c1cc(C(O)P(=O)(O)O)ccc1OCc1ccc(Cl)c(Cl)c1 (centres unmarked) [Example 56, [3-Nitro-4-(3,4-dichlorobenzyloxy)]phenylhydroxymethylphosphonic acid]	30 µM	
O=C(c1cc([N+](=O)[O-])ccc1Cl)P(=O)(O)O [Example 58, (2-Chloro-5-nitro)phenyloxomethylphosphonic acid]	5 µM	
O=[N+]([O-])c1ccc(-c2ccccc2)c(C(O)P(=O)(O)O)c1 (centres unmarked) [Example 59, (2-Phenyl-5-nitro) phenylhydroxymethylphosphonic acid]	10 µM	

Source: patent US5994563A, “Arylmethylphosphonic acid derivatives useful in treating bone wasting diseases” (Ortho Pharmaceutical Corporation, priority 1999, dated 1999)
